Biological target: T1, RO3G (UDP-glycosyltransferase candidate, EIE92684.1) (Rhizopus delemar, UniProt I1CW54)
T1 construct: gene RO3G_17395; codon-optimised synthetic gene in pCDFDuet-1, expressed in E. coli BL21(DE3); no predicted signal peptide; not purified
T1 sequence (I1CW54 1-527): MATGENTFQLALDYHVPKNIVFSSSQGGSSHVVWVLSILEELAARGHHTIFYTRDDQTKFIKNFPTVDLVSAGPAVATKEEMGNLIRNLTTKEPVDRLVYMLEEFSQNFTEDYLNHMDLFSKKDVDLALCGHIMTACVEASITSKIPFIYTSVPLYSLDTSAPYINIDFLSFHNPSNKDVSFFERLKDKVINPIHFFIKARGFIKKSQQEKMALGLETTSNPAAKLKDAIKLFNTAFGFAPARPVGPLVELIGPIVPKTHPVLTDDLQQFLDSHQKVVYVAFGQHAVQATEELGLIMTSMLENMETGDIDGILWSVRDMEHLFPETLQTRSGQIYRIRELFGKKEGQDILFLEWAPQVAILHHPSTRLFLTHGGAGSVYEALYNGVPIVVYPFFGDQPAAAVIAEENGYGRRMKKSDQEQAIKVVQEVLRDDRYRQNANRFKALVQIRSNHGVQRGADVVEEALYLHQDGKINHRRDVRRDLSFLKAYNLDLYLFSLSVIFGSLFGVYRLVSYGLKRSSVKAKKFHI
Experiment: 1-dodecanol feeding of expressing E. coli; lauryl glucoside by HPLC-RI and LC-MS
Type: cell-based
Settings: whole E. coli BL21(DE3), M9 with 2% glucose, 2.0 mM 1-dodecanol, 30 °C, 48 h; endogenous UDP-glucose as presumed donor; GFP strain as control

CCCCCCCCCCCCO [1-dodecanol]
1-dodecanol feeding of expressing E. coli; lauryl glucoside by HPLC-RI and LC-MS: The engineered strain successfully converted 1-dodecanol to lauryl glucoside, as quantified by HPLC
